# Results as given in patent US20220339257A1, “METHODS TO INCREASE THE SENSITIVITY AND REVERSING THE RESISTANCE TO DRUGS” (Biomarker Strategies, LLC, priority 2019, published 2022).
# B1: tumor necrosis factor-beta (protein, UniProt P01374 35-205, looked up)
# Lymphotoxin-alpha: LPGVGLTPSAAQTARQHPKMHLAHSTLKPAAHLIGDPSKQNSLLWRANTDRAFLQDGFSLSNNSLLVPTSGIYFVYSQVVFSGKAYSPKATSSPLYLAHEVQLFSSQYPFHVPLLSSQKMVYPGLQEPWLHSMYHGAAFQLTQGDQLSTHTDGIPHLVLSPSTVFFGAFAL
# notes: enhancer molecule, cytokine purchased from Sigma
# What was measured:
# Assay type in all cases: cell-based
# [1] = tested on: H2170; test: WST-8 cell viability assay; settings: in combination with GSK-458, 72 hours
# Procedure: (§1) Day 1: cells were harvested cells from flask (4 mL accutase for T175 for 3-5 minutes), and spin down for 5 mins at 1200 rpm. The supernatant was poured off, and the pellet gently resuspended in 1 mL media. Countess counts were performed, and the cells were diluted in media (10% FBS). With multi-channel pipette, 2500 cells were seeded in 100 uL of media (10% FBS) in each well of 96 well plate. The cells were let to adhere and grow for 24 hours. Day 2: serial drug dilutions of MTAs+/−EMs at 5× of concentrations (as done above) were performed in media (10% FBS). 20 uL of media form each well of the 96 well plate (80 uL media left in wells) was removed, and 20 uL of appropriate 5× drug dilutions was added to each respective well (for a 1× conc). The cells were incubated with drug for 72 hours in 37C incubator. Day 5: 10 uL of WST-8 reagent was added to each well of the 96 well plate and mixed gently. the plates were incubated up to 4 hours at 37C in dark, and absorbance readings were taken at […] and 600 nm wavelengths at 1, 2, 3 and 4h, until control absorbance levels were 1.5-2.0).
# (§2) WST-8 Assay: MTA and EM effects on cell viability were measured by Cell Counting Kit8 (WST-8) colorimetric assay using water-soluble tetrazolium salt WST-8 reagent (Vita Scientific Cat. #DBOC00128). For the assay, cells were seeded in 96-well plates at 2,500 cells per well, in 100 μL of 10% FBS-containing media. After 24 hours, a 1 nM to 10 μM range of MTA and/or 1 ng/mL to 1 mg/mL range of EM doses was added and incubated for 72 hours. After treatment, a 10% volume of WST-8 reagent was added to each well and cells were incubated at 37° C. for up to 4 hours. Solution absorbance was measured at wavelengths of 450 nm and 600 nm at 1-, 2-, 3-, and 4-hour's incubation. Percentage viability of drug-treated cells was calculated relative to untreated control cells. Results were confirmed by three independent experiments.
# (§3) For studying the effects of various molecularly targeted agents (MTAs) and enhancer molecules (EMs) alone as well as in combination: HCC827, PC-9, A427, Calu-6, H2228, H358, H1299, H460, H292, H1838, H2170, and H226 (non-small cell lung cancer; NSCLC); and SK-MES-1 […], CAL27, OE21, KYSE-70, A-253, BICR-16, PE/CA-PJ15 and Ca9-22 (head and neck squamous cell carcinoma; HNSCC); SK-MEL-2, SK-MEL-28, RPMI-7951 and A7 (melanoma); HTB-38 and HCT116 (colorectal cancer; CRC); BxPC-3 and HPAF-II (pancreatic cancer); HEPG2 (hepatocellular carcinoma; HCC); A498 (renal cell carcinoma; RCC) cells were used. Other cell lines, including those from other cancer types, or cells collected from more complex sample types such as xenografts and clinical samples can be used. Ultimately, these combinations can be utilized in various clinical and pre-clinical samples and studies. Using the WST-8 cell viability assay, a MTA+EM-induced anti-cancer/anti-growth activity in multiple cell lines was discovered (FIGS. 8-15). Other viability assays, for example, MTT, HoPI staining, dye exclusion (e.g. trypan blue), can be used readily. […] The cut-off value for classifying a “strong anti-cancer/anti-growth enhancement” was a response resulting in >70% reduction in cell survival compared to untreated control cells (100%), while showing greater reduction compared to both MTA and EM alone.
# [2] = tested on: Calu-6; test: WST-8 cell viability assay
# Procedure: as §1, §2, §3
# [3] = tested on: HPAF-II; test: WST-8 cell viability assay
# Procedure: as §1, §2, §3
# [4] = tested on: A-253; test: WST-8 cell viability assay; settings: in combination with spermidine, 72 hours
# Procedure: as §1, §2, §3
# [5] = tested on: Ca9-22; test: WST-8 cell viability assay; settings: in combination with osimertinib, 72 hours
# Procedure: as §1, §2, §3
# [6] = tested on: Ca9-22 cells; test: Western blot of protein biomarkers; settings: osimertinib (100 nM)+IL-17 (10 ng/mL)
# Procedure: (§4) MTA and EM effects on protein biomarker expression were measured by western blotting. For the assay cell lines (Ca9-22, PE/CA-PJ15, HTB-38, HPAF-II, CAL27, BICR-16, A-253, Calu-6, PC-9, H1838, RPMI-7951 and A7) were cultured and treated with doses of MTAs alone, EMs alone and in combination and then lysed for protein analysis. This method can readily be conducted under adherent or suspension conditions, manually or on automated instruments, such as SnapPath. A total of 0.3×10^6 cells per well were seeded in 6 well plates with 10% FBS-containing media and incubated for 24 hours. Cells were then treated with MTA and/or EM concentrations for 24 hours. For total protein extraction, briefly, each sample media was collected, and wells were washed with HMS, and the wash was combined with its respective media collection. Cells were then detached using Accutase solution and again collected in its respective sample media and another HMS well wash and collection was performed. All cell solutions were centrifuged, washed with ice-cold PBS, and centrifuged again. Cell pellets were lysed in 250 μL of ice-cold 1× lysis buffer with protease and phosphatase inhibitor cocktails and incubated for 10 minutes on ice. Lysates were clarified with a centrifugation (14,000 rpm) for 10 minutes at 4° C. Cell lysates were quantified using Bio-Rad DC Protein Assay (Bio-Rad Cat. #5000116).
# (§5) For all western blots, an equal amount of protein (3-5 μg) was loaded into SDS-polyacrylamide gels (Mini-Protean TGX Precast Gel; Bio-Rad, e.g. 7.5%, Cat. #4561024; 10%, Cat. #4561035; 12%, Cat. #4561045; or 4-15%, Cat. #4561085). Proteins were separated at 215V for at least 30 minutes in 1× Tris/Glycine/SDS buffer (Bio-Rad Cat. #1610772) and transferred to PVDF membranes using a Trans-Blot Turbo (Bio-Rad Cat. #1704155) for 7 minutes in transfer buffer (Trans-Blot Turbo Transfer Kit, Bio-Rad Cat. #1704273). Blots were blocked at room temperature for 1 hour with 5% non-fat dry milk in tris-buffered saline with Tween 20 (TBST; 15 mM Tris-HCl, pH 7.5, 200mMNaCl and 0.1% Tween 20). Membranes were incubated with primary antibodies at 4° C. overnight and at room temperature for 1 hour the next day; all primary antibodies were diluted following manufacturer's specifications in TBST with either 5% BSA or 5% non-fat dry milk. Membranes were washed in TBST for 5 minutes, three times, and incubated with HRP-conjugated secondary antibodies diluted 1:5000 in TBST with 5% non-fat dry milk at room temperature for 1 hour (anti-rabbit IgG, Bio-Rad Cat. #1706515; or anti-mouse IgG, Bio-Rad Cat. #1706516). Membranes were then washed in TBST for 10 minutes, three times, and target proteins were identified using Clarity Western ECL Substrate (Bio-Rad Cat. #1705061) on autoradiography film (GenHunter Cat. #B581, Nashville, Tenn., USA). Other assay types, such as Luminex multiplexed immunoassays, ICC, IHC, flow cytometry, etc. can be used readily.
# [7] = tested on: HPAF-II cells; test: Western blot of protein biomarkers; settings: trametinib (100 nM)+IL-17 (10 ng/mL), 24 hours
# Procedure: as §4, §5
# [8] = tested on: BICR-16; test: WST-8 cell viability assay; settings: in combination with GSK-458, 72 hours
# Procedure: as §1, §2, §3
# [9] = tested on: BxPC-3; test: WST-8 cell viability assay; settings: in combination with GSK-458, 72 hours
# Procedure: as §1, §2, §3
# [10] = tested on: OE21; test: WST-8 cell viability assay; settings: in combination with trametinib, 72 hours
# Procedure: as §1, §2, §3
# [11] = tested on: CAL27; test: WST-8 cell viability assay; settings: in combination with GSK-795, 72 hours
# Procedure: as §1, §2, §3
# [12] = tested on: HTB-38; test: WST-8 cell viability assay
# Procedure: as §1, §2, §3
# [13] = tested on: panel of cell lines that included NSCLC, HNSCC, melanoma, and CRC; test: WST8 in vitro sensitivity to MTAs with and without EM
# Procedure: as §1
# We used a panel of cell lines that included NSCLC, HNSCC, melanoma, and CRC. These cell lines are a good model system harboring similar (epi)genetic changes found in patients' tumors. We used the WST8 assay to determine the in vitro sensitivity to various MTAs with and without EM1.
# [14] = tested on: CAL27 cells; test: Western blot of protein biomarkers; settings: GSK-795 (10 nM)+IFN-γ (50 ng/mL)
# Procedure: as §4, §5
# [15] = tested on: Calu-6 cells; test: Western blot of protein biomarkers; settings: GSK-458 (100 nM)+TNF-β (50 ng/mL), 24 hours
# Procedure: as §4, §5
# [16] = in combination with trametinib, 72 hours
# [17] = 24 hours, compared to either MTA or EM alone
# [18] = compared to either therapy alone
# [19] = in combination with GSK-458, 72 hours
molecule,measurement,setting,value
interleukin 17 [EM5],anti-cancer/growth enhancement (WST-8 cell viability),[1],moderate-to-strong anti-cancer/growth enhancement
same,anti-cancer/growth enhancement (WST-8 cell viability),[2]; [16],moderate-to-strong anti-cancer/growth enhancement
same,anti-cancer/growth enhancement (WST-8 cell viability),[3]; [16],moderate-to-strong anti-cancer/growth enhancement
same,anti-cancer/growth enhancement (WST-8 cell viability),[4],moderate-to-strong anti-cancer/growth enhancement
same,anti-cancer/growth enhancement (WST-8 cell viability),[5],moderate-to-strong anti-cancer/growth enhancement
same,p-AKT (Ser473) expression,[6]; [17],strong reduction in p-AKT (Ser473) expression
same,Ki67 expression,[6]; compared to both MTA and EM alone,enhanced reduction in Ki67 expression
same,PARP cleavage,[7]; compared to MTA and EM alone,very strong PARP cleavage
same,p-AKT (Ser473) expression,[7]; compared to either MTA or EM alone,strong reduction in p-AKT (Ser473) expression
same,Ki67 degradation and/or fragmentation pattern,[7]; [18],marked increase in the distinct degradation and/or fragmentation pattern of Ki67
"interferon-gamma [EM1, enhancer molecule, cytokine purchased from Sigma]",anti-cancer/growth enhancement (WST-8 cell viability),"[2]; in combination with GSK-795, 72 hours",moderate-to-strong anti-cancer/growth enhancement
same,anti-cancer/growth enhancement (WST-8 cell viability),[8],moderate-to-strong anti-cancer/growth enhancement
same,anti-cancer/growth enhancement (WST-8 cell viability),[9],moderate-to-strong anti-cancer/growth enhancement
same,anti-cancer/growth enhancement (WST-8 cell viability),[10],moderate-to-strong anti-cancer/growth enhancement
same,anti-cancer/growth enhancement (WST-8 cell viability),[11],moderate-to-strong anti-cancer/growth enhancement
same,anti-cancer/growth enhancement (WST-8 cell viability),[12]; [19],moderate-to-strong anti-cancer/growth enhancement
same,anti-cancer/growth enhancement (WST-8 cell viability),"[12]; in combination with dabrafenib, 72 hours",moderate-to-strong anti-cancer/growth enhancement
same,anti-cancer/growth enhancement (WST-8 cell viability),[12]; [16],moderate-to-strong anti-cancer/growth enhancement
same,anti-cancer/growth enhancement (WST-8 cell viability),[3]; [19],moderate-to-strong anti-cancer/growth enhancement
same,anti-cancer/growth enhancement (WST-8 cell viability),[3]; [16],moderate-to-strong anti-cancer/growth enhancement
same,"response enhancement (in vitro sensitivity to various MTAs with and without EM, WST8)",[13],"no, minimal and strong response enhancement"
same,p-AKT (Ser473) expression,[14]; [17],strong reduction in p-AKT (Ser473) expression
same,LC3II over LC3I expression,"[14]; 24 hours, compared to either alone",marked increase in LC3II over LC3I expression
same,p62 expression,[14]; [18],reduced p62 expression
B1,anti-cancer/growth enhancement (WST-8 cell viability),[5],anti-cancer/growth enhancement
same,PARP cleavage,[15]; compared to MTA and EM alone,very strong PARP cleavage
same,Ki67 degradation and/or fragmentation pattern,[15]; [18],marked increase in the distinct degradation and/or fragmentation pattern of Ki67
